# Measured values reported in patent US7731985B2, “4-aminopyrimidines and their use for the antimicrobial treatment of surfaces” (Ciba Specialty Chemicals Corporation, priority 2002, dated 2010).
# Marks after values point to notes of the source that are not given here.
# Experiments:
# Format in all cases: cell-based
# [1] = test system: Aspergillus niger ATCC 6275; assay: Agar incorporation test CG128e (Example 11); details: 28° C. for 3 days
# Protocol: (§1) [table] 0.3 ml of each dilution step is mixed with 15 ml of nutrient medium while the latter is still liquid. After the nutrient medium has solidified, 10 μl of each of the following organism dilutions of the test strains in 0.85% NaCl solution are spotted onto the agar medium: [table] The plates are incubated at 37° C. for 24 hours (A. niger at 28° C. for 3 days) and then the highest dilution (lowest concentration) of the test substance at which growth is just no longer discernible (corresponds to the MIC) is determined.
# [2] = test system: C. minutissimum ATCC 23348; assay: Agar incorporation test CG128e (Example 11); details: 24 hours at 37° C.
# Protocol: as §1
# [3] = test system: Candida albicans ATCC 10231; assay: Agar incorporation test CG128e (Example 11); details: 24 hours at 37° C.
# Protocol: as §1
# [4] = test system: Corynebacterium xerosis* ATCC 373; assay: Agar incorporation test CG128e (Example 11); details: 24 hours at 37° C.; organism marked *
# Protocol: as §1
# [5] = test system: Escherichia coli ATCC 10536; assay: Agar incorporation test CG128e (Example 11); details: 24 hours at 37° C.
# Protocol: as §1
# [6] = test system: Escherichia coli NCTC 8196; assay: Agar incorporation test CG128e (Example 11); details: 24 hours at 37° C.
# Protocol: as §1
# [7] = test system: Klebsiella pneumoniae ATCC 4352; assay: Agar incorporation test CG128e (Example 11); details: 24 hours at 37° C.
# Protocol: as §1
# [8] = test system: Propionibacterium acnes (*) ATCC 6919; assay: Agar incorporation test CG128e (Example 11); details: 24 hours at 37° C.; organism marked *
# Protocol: as §1
# [9] = test system: Proteus vulgaris ATCC 6896; assay: Agar incorporation test CG128e (Example 11); details: 24 hours at 37° C.
# Protocol: as §1
# [10] = test system: Pseudomonas aeruginosa ATCC 15442; assay: Agar incorporation test CG128e (Example 11); details: 24 hours at 37° C.
# Protocol: as §1
# [11] = test system: Salmonella choleraesuis ATCC 9184; assay: Agar incorporation test CG128e (Example 11); details: 24 hours at 37° C.
# Protocol: as §1
# [12] = test system: Staphylococcus aureus ATCC 6538; assay: Agar incorporation test CG128e (Example 11); details: 24 hours at 37° C.
# Protocol: as §1
# [13] = test system: Staphylococcus aureus ATCC 9144; assay: Agar incorporation test CG128e (Example 11); details: 24 hours at 37° C.
# Protocol: as §1
# [14] = test system: Staphylococcus epidermidis ATCC 12228; assay: Agar incorporation test CG128e (Example 11); details: 24 hours at 37° C.
# Protocol: as §1
# [15] = test system: Actynomyces viscosus ATCC 43146; assay: "Microbicidal Activity" suspension test CG 161/EN1040 (Example 12); details: A. viscosus
# Protocol: (§2) Bacteria are incubated overnight in CASO broth and adjusted to an organism count of 1-5×10^5 CFU/ml using 0.85% sodium chloride solution. The test substances are pre-pipetted into microtitre plates in amounts of 8 μl per well. The adjusted test organism suspensions are added in amounts of 192 μl per well to the test substances and mixed. After defined contact times, the test batches are mixed, an aliquot is withdrawn and diluted in several steps in a dilution series of 1:10 in a suitable inactivation medium. The test plates are incubated for 24 hours at 37° C. After incubation, the growth is determined on the basis of the turbidity of the test batches (optical density) at 620 nm in a microplate reader. […] One microtitre plate is used for each test organism. All the substances are tested in duplicate.
# [16] = test system: Escherichia coli ATCC 10536; assay: as above; details: E. coli
# Protocol: as §2
# [17] = test system: Staphylococcus aureus ATCC 6538; assay: as above; details: S. aureus
# Protocol: as §2
# [18] = test system: Candida albicans ATCC 10231 (=CA); assay: MIC in microtitre plates (Example 10); set-up: unit not given here; details: microtitre plate, 48 hours at 37° C., ≦20% growth
# Outline: (§3)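 DMSO-dissolved compounds tested in 1:2 serial dilution against overnight CASO broth cultures, inoculum adjusted to 1-5×10^6 CFU/ml then diluted 1:100 in CASO. Incubated 48 hours at 37° C; turbidity read at 620 nm. MIC = lowest concentration giving ≦20% growth versus control; duplicates.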
# [19] = test system: Escherichia coli NCTC 8196 (=EC); assay: MIC in microtitre plates (Example 10); set-up: unit not given here; details: microtitre plate, 48 hours at 37° C., ≦20% growth
# Outline: as §3
# [20] = test system: Pseudomonas aeruginosa CIP A-22 (=PA); assay: MIC in microtitre plates (Example 10); set-up: unit not given here; details: microtitre plate, 48 hours at 37° C., ≦20% growth
# Outline: as §3
# [21] = test system: Staphylococcus aureus ATCC 9144 (=SA); assay: MIC in microtitre plates (Example 10); set-up: unit not given here; details: microtitre plate, 48 hours at 37° C., ≦20% growth
# Outline: as §3
# [22] = contact time 5 min, test substance 0.12%
# [23] = contact time 5 min, test substance 120 ppm
# [24] = contact time 30 min, test substance 0.12%
# [25] = contact time 30 min, test substance 120 ppm
Structure (SMILES),MIC (agar incorporation) Aspergillus niger ATCC 6275 [1],MIC (agar incorporation) C. minutissimum ATCC 23348 [2],MIC (agar incorporation) Candida albicans ATCC 10231 [3],MIC (agar incorporation) Corynebacterium xerosis* ATCC 373 [4],MIC (agar incorporation) Escherichia coli ATCC 10536 [5],MIC (agar incorporation) Escherichia coli NCTC 8196 [6],MIC (agar incorporation) Klebsiella pneumoniae ATCC 4352 [7],MIC (agar incorporation) Propionibacterium acnes (*) ATCC 6919 [8],MIC (agar incorporation) Proteus vulgaris ATCC 6896 [9],MIC (agar incorporation) Pseudomonas aeruginosa ATCC 15442 [10],MIC (agar incorporation) Salmonella choleraesuis ATCC 9184 [11],MIC (agar incorporation) Staphylococcus aureus ATCC 6538 [12],MIC (agar incorporation) Staphylococcus aureus ATCC 9144 [13],MIC (agar incorporation) Staphylococcus epidermidis ATCC 12228 [14],"log reduction [15, 22]","log reduction [15, 23]","log reduction [15, 24]","log reduction [15, 25]","log reduction [16, 23]","log reduction [16, 25]",also measured
CCCCCCCCCCCCNc1cc(C)nc(-c2cccnc2)n1 [Compound of formula 36],>120,30,>120,60,>120,120,60**,60,>120,>120,>120,120,120,>120,–,–,–,–,–,–,–
CCCCCCCCCCCCNc1cc(C)nc(C)n1 [Compound of formula 89],>120,3.75,>120,3.75,>120,120,>120,3.75,60,>120,>120,7.5,7.5,120,4.9 log,3.9 log,>5 log,4.3 log,4.6 log,>5 log,"log reduction [17, 23]: <1 log; log reduction [17, 25]: 1.7 log"
"CCCCCCCCCCCCNc1cc(C)nc(C(C)C)n1 [Compound of formula 93, 4-dodecylamino-2-isopropyl-6-methylpyrimidine]",>120,1.88,>120,1.88*,120,120,60,3.75 (*),>120,>120,120,3.75,3.75,3.75,>5 log,2 log,>5 log,4 log,>5 log,>5 log,"log reduction [16, 22]: >5 log; log reduction [16, 24]: >5 log; log reduction [17, 22]: >5 log; log reduction [17, 23]: 1.4 log; log reduction [17, 24]: >5 log; log reduction [17, 25]: 3.8 log"
Cc1cc(NC(C)CC(C)C)nc(-c2ccc(C)c(F)c2)n1 (stereo not drawn) [compound 148],–,–,–,–,–,–,–,–,–,–,–,–,–,–,–,–,–,–,–,–,MIC CA [18]: >120; MIC EC [19]: >120; MIC PA [20]: >120; MIC SA [21]: 120
